Measurements from US8080517B2, “Cell-permeable peptide inhibitors of the JNK signal transduction pathway” (Xigen SA, priority 2005, dated 2011).
Where a SMILES comes first, the peptide text is derived from it. [ ]: non-standard residue; d: D form.

Tested on: βTC-3 cell cultures
Type: cell-based
Description: The ability of the L- and D-enantiomeric forms of TAT and inventive TAT-IB1(s) peptides (“TAT-IB peptides”) to enter cells was evaluated. L-TAT, D-TAT, inventive L-TAT-IB1(s), and inventive D-TAT-IB1(s) peptides [SEQ ID NOs: 5, 6, 9 and 12, respectively] were labeled by N-terminal addition of a glycine residue conjugated to fluorescein. Labeled peptides (1 μM) were added to βTC-3 cell cultures, which were maintained as described in Example 3. At predetermined times cells were washed with PBS and fixed for five minutes in ice-cold methanol-acetone (1:1) before being examined under a fluorescence microscope. Fluorescein-labeled BSA (1 μM, 12 moles/mole BSA) was used as a control.
Little to no signal was present at 48 hours.
Fluorescent signals from these all-D retro-inverso peptides were still very strong 1 week later, and the signal was only slightly diminished at 2 weeks post treatment.

stability inside the cells: extremely stable inside the cells
SMILES: CC(C)C[C@@H](NC(=O)[C@@H](Cc1ccccc1)NC(=O)[C@H]1CCCN1C(=O)[C@@H](CCC(N)=O)NC(=O)[C@H](NC(=O)[C@H]1CCCN1C(=O)[C@@H](CCCNC(=N)N)NC(=O)[C@@H](CO)NC(=O)[C@@H](CCC(N)=O)NC(=O)[C@H](N)CC(=O)O)C(C)C)C(=O)N[C@H](CC(N)=O)C(=O)N[C@H](CC(C)C)C(=O)N[C@@H](C(=O)N[C@@H](C(=O)N1CCC[C@@H]1C(=O)N[C@H](CCCNC(=N)N)C(=O)N[C@H](CCCCN)C(=O)N1CCC[C@@H]1C(=O)N[C@H](CCCNC(=N)N)C(=O)N1CCC[C@@H]1C(=O)N1CCC[C@@H]1C(=O)N[C@H](CCCNC(=N)N)C(=O)N[C@H](CCCNC(=N)N)C(=O)N[C@H](CCCNC(=N)N)C(=O)N[C@H](CCC(N)=O)C(=O)N[C@H](CCCNC(=N)N)C(=O)N[C@H](CCCNC(=N)N)C(=O)N[C@H](CCCCN)C(=O)N[C@H](CCCCN)C(=O)N[C@H](CCCNC(=N)N)C(=O)NCC(=O)O)[C@H](C)O)[C@H](C)O [D-TAT-IB1(s)] (H-[dD][dQ][dS][dR][dP][dV][dQ][dP][dF][dL][dN][dL][dT][dT][dP][dR][dK][dP][dR][dP][dP][dR][dR][dR][dQ][dR][dR][dK][dK][dR]G-OH)
